According to article PMC9218685, “Legume Plant Peptides as Sources of Novel Antimicrobial Molecules Against Human Pathogens” (Frontiers in Molecular Biosciences, 2022):
Values after ≈ are worked out from the molar mass of the structure shown. Ends that are not written are not given here. Peptide text beside a SMILES is read from it.

How the values were obtained:
Assay type in all cases: cell-based
[1] = test system: Listeria monocytogenes (ATCC 19111); conditions: for MBC Listeria monocytogenes: ATCC 19111, 3 h; for Activity against L. monocytogenes: 3 h, ~10^7 log phase bacteria, peptides ≤25 µM
Source text: (§1) The following pathogenic bacterial strains were used: The Gram-positive Enterococcus faecalis (ATCC 29212), Staphylococcus aureus (HNCMO112011), Listeria monocytogenes (ATCC 19111) and the Gram-negative Pseudomonas aeruginosa (ATCC 27853), Escherichia coli (ATCC 8739), Salmonella enterica (ATCC 13076), Klebsiella pneumoniae (NCTC 13440), Acinetobacter baumannii (ATCC 17978) obtained from the ATCC (United States) and NCTC (National Collection of Type Cultures–England). For the antifungal experiment the Candida albicans W01 strain ([Ördögh et al., 2014]) was used. Antimicrobial activities of peptides against ∼10^7 log phase bacteria were tested in Potassium-Phosphate Buffer (PPB, pH 7.4) as described by [Jenei et al. (2020)] while anti-Candida assays were done according to [Szerencsés et al. (2021)]. The two-fold dilution series of peptides ranged from 25 μM to 0.125 μM, while that of the antibiotics ampicillin (Merck) and miconazole (Duchefa Biochemie) from […] to 0.1 μM. The lowest concentration of the antimicrobial agents, which completely eliminated viable bacteria or C. albicans were considered as the minimal bactericidal concentration (MBC) and minimal fungicidal concentration (MFC).
(§2) The minimal bactericidal concentrations (MBCs) were determined after 3 h of treatment of ∼10^7 log phase bacteria with 2-fold serial dilution of peptides from 25 µM to 0.8 µM. Only 25 of the 50 cationic M. truncatula peptides had activity at ≤25 µM (Supplementary Table S1). […] Three peptides were only active against two bacterial strains; NCR649 against L. monocytogenes and A. baumannii, NCR281 against L. monocytogenes and P. aeruginosa and NCR350 against A. baumannii and P. aeruginosa. […] None of the anionic NCR peptides affected the survival of the tested bacterial strains.

[2] = test system: Enterococcus faecalis (ATCC 29212); conditions: 3 h, ~10^7 log phase bacteria, peptides ≤25 µM
Source text: as §1, §2

[3] = test system: Pseudomonas aeruginosa (ATCC 27853); conditions: for Activity against P. aeruginosa: 3 h, ~10^7 log phase bacteria, peptides ≤25 µM; for MBC Pseudomonas aeruginosa: ATCC 27853, 3 h
Source text: as §1, §2

[4] = test system: Acinetobacter baumannii (ATCC 17978); experiment: microbe, parasite or virus in culture; conditions: for Activity against A. baumannii: 3 h, ~10^7 log phase bacteria, peptides ≤25 µM
Source text: as §1, §2

[5] = test system: Escherichia coli (ATCC 8739); conditions: for Activity against E. coli: 3 h, ~10^7 log phase bacteria, peptides ≤25 µM; for MBC Escherichia coli: ATCC 8739, 3 h
Source text: as §1, §2

| Compound | MBC Listeria monocytogenes [1] [µM] | Activity against L. monocytogenes [1] | MBC Escherichia coli [5] [µM] | MBC Pseudomonas aeruginosa [3] [µM] | further results |
| --- | --- | --- | --- | --- | --- |
| CSCC[C@H](NC(=O)[C@H](CCCNC(=N)N)NC(=O)[C@@H](NC(=O)[C@H](Cc1c[nH]c2ccccc12)NC(=O)[C@H](CCCNC(=N)N)NC(=O)[C@H](CS)NC(=O)[C@H](CCC(=O)O)NC(=O)CNC(=O)[C@H](CCCCN)NC(=O)[C@@H](NC(=O)[C@H](CS)NC(=O)[C@H](CCCCN)NC(=O)[C@H](Cc1ccccc1)NC(=O)[C@H](CCCNC(=N)N)NC(=O)[C@H](CCCCN)NC(=O)[C@@H](NC(=O)[C@H](CCCNC(=N)N)NC(=O)[C@@H](NC(=O)[C@H](CO)NC(=O)[C@@H]1CCCN1C(=O)[C@@H]1CCCN1C(=O)[C@H](CS)NC(=O)[C@H](CC(=O)O)NC(=O)[C@H](C)NC(=O)[C@H](CC(=O)O)NC(=O)[C@@H](NC(=O)[C@H](CCC(=O)O)NC(=O)[C@H](CS)NC(=O)[C@H](CC(N)=O)NC(=O)[C@@H](NC(=O)[C@@H](N)Cc1ccc(O)cc1)C(C)C)[C@@H](C)O)[C@@H](C)O)C(C)C)C(C)C)[C@@H](C)O)C(=O)N[C@@H](CO)C(=O)N[C@@H](Cc1ccc(O)cc1)C(=O)N[C@@H](C)C(=O)O [NCR086] (H-YVNCETDADCPPSTRVKRFKCVKGECRWTRMSYA-OH; N-terminus assumed) | 25 (≈ 100 µg/mL) | – | – | – | – |
| CC[C@H](C)[C@H](N)C(=O)N[C@H](C(=O)N[C@H](C(=O)N[C@@H](CC(N)=O)C(=O)N[C@@H](CCCNC(=N)N)C(=O)N[C@@H](CCCNC(=N)N)C(=O)N[C@@H](CS)C(=O)N[C@@H](CCCCN)C(=O)N[C@@H](CO)C(=O)N[C@@H](Cc1c[nH]cn1)C(=O)N[C@@H](CCCCN)C(=O)N[C@@H](CC(=O)O)C(=O)N[C@@H](CS)C(=O)N1CCC[C@H]1C(=O)NCC(=O)N[C@@H](Cc1ccccc1)C(=O)NCC(=O)N[C@@H](CCCCN)C(=O)N[C@@H](CS)C(=O)N[C@@H](CC(C)C)C(=O)N[C@@H](CCCCN)C(=O)N[C@@H](CC(C)C)C(=O)N[C@@H](CCCCN)C(=O)N[C@@H](CS)C(=O)N[C@H](C(=O)N[C@@H](Cc1ccc(O)cc1)C(=O)N[C@H](C(=O)N1CCC[C@H]1C(=O)N[C@@H](CCCCN)C(=O)N[C@@H](CCCNC(=N)N)C(=O)O)[C@@H](C)O)C(C)C)[C@@H](C)O)[C@@H](C)CC [GoNCR308] (H-IITNRRCKSHKDCPGFGKCLKLKCVYTPKR-OH; N-terminus assumed) | – | – | – | – | Ability to kill E. faecalis [2]: able to kill |
| GRYTTPWCVRDIDCPKEKCKHPFKPRCLTHSCVCRLWGSQDVI-OH (cysteines drawn unpaired) [NCR281] | – | active | – | – | Activity against P. aeruginosa [3]: active |
| CC[C@H](C)[C@H](NC(=O)[C@H](Cc1ccc(O)cc1)NC(=O)[C@H](C)N)C(=O)N[C@@H](CCC(=O)O)C(=O)N[C@@H](CS)C(=O)N[C@@H](CCC(=O)O)C(=O)N[C@H](C(=O)N[C@@H](CC(=O)O)C(=O)N[C@@H](CC(=O)O)C(=O)N[C@@H](CC(=O)O)C(=O)N[C@@H](CS)C(=O)N1CCC[C@H]1C(=O)N[C@@H](CCCCN)C(=O)N1CCC[C@H]1C(=O)N[C@@H](CCSC)C(=O)N[C@@H](CCCCN)C(=O)N[C@@H](CC(N)=O)C(=O)N[C@@H](CO)C(=O)N[C@@H](Cc1c[nH]cn1)C(=O)N1CCC[C@H]1C(=O)N[C@@H](CC(=O)O)C(=O)N[C@H](C(=O)N[C@@H](Cc1ccc(O)cc1)C(=O)N[C@@H](Cc1ccc(O)cc1)C(=O)N[C@@H](CCCCN)C(=O)N[C@@H](CS)C(=O)N[C@H](C(=O)N[C@@H](CCCCN)C(=O)N[C@@H](Cc1c[nH]cn1)C(=O)N[C@@H](CCCNC(=N)N)C(=O)N[C@@H](CS)C(=O)N[C@@H](CCC(N)=O)C(=O)N[C@@H](Cc1c[nH]c2ccccc12)C(=O)N[C@@H](C)C(=O)N[C@@H](Cc1c[nH]c2ccccc12)C(=O)N[C@@H](CCCCN)C(=O)O)C(C)C)[C@@H](C)O)C(C)C [NCR147] (H-AYIECEVDDDCPKPMKNSHPDTYYKCVKHRCQWAWK-OH; N-terminus assumed) | 12.5 (≈ 54.9 µg/mL) | showed activity | 25 (≈ 110 µg/mL) | 12.5 (≈ 54.9 µg/mL) | Activity against A. baumannii [4]: showed activity; MBC Acinetobacter baumannii ([4]; ATCC 17978, 3 h): 3.125 µM (≈ 13.7 µg/mL); Activity against E. coli [5]: showed activity; Activity against P. aeruginosa [3]: showed activity |
| CC(C)[C@H](NC(=O)[C@H](CS)NC(=O)[C@@H](N)CCCCN)C(=O)N[C@@H](Cc1ccc(O)cc1)C(=O)N[C@H](C(=O)N1CCC[C@H]1C(=O)N[C@@H](CCCCN)C(=O)N[C@@H](CCCNC(=N)N)C(N)=O)[C@@H](C)O [GoNCR308 (23-30)] (H-KCVYTPKR-NH2) | – | – | 50 (≈ 49.7 µg/mL) | – | – |
| CC(C)C[C@H](NC(=O)[C@H](CCCCN)NC(=O)[C@H](CC(C)C)NC(=O)[C@H](CS)NC(=O)[C@H](CCCCN)NC(=O)CNC(=O)[C@@H](N)Cc1ccccc1)C(=O)N[C@@H](CCCCN)C(N)=O [GoNCR308 (16-23)] (H-FGKCLKLK-NH2) | – | – | 25 (≈ 23.4 µg/mL) | 25 (≈ 23.4 µg/mL) | – |
| CC(C)C[C@H](NC(=O)[C@H](CS)NC(=O)[C@@H](NC(=O)[C@H](CS)NC(=O)[C@H](CCCCN)NC(=O)[C@@H](NC(=O)[C@@H](NC(=O)[C@H](CCC(=O)O)NC(=O)[C@@H]1CCCN1C(=O)[C@@H]1CCCN1C(=O)[C@@H](NC(=O)[C@H](CS)NC(=O)[C@H](CCCCN)NC(=O)[C@H](CC(C)C)NC(=O)[C@@H](NC(=O)[C@@H](N)CCCCN)C(C)C)[C@@H](C)O)C(C)C)C(C)C)[C@@H](C)O)C(=O)N[C@@H](CS)C(=O)NCC(=O)N[C@@H](CCCCN)C(=O)N[C@@H](CCCNC(=N)N)C(=O)N[C@H](C(=O)N[C@@H](CC(C)C)C(=O)N[C@@H](Cc1ccc(O)cc1)C(=O)O)[C@@H](C)O [NCR649] (H-KVLKCTPPEVVKCTCLCGKRTLY-OH; N-terminus assumed) | – | active | – | – | Activity against A. baumannii [4]: active |
| CC(C)C[C@H](NC(=O)[C@H](CS)NC(=O)[C@H](CCCCN)NC(=O)CNC(=O)[C@@H](N)Cc1ccccc1)C(=O)N[C@@H](CCCCN)C(=O)N[C@@H](CC(C)C)C(=O)N[C@@H](CCCCN)C(=O)N[C@@H](CS)C(=O)N[C@H](C(N)=O)C(C)C [GoNCR308 (16-25)] (H-FGKCLKLKCV-NH2; N-terminus assumed) | 12.5 (≈ 14.2 µg/mL) | – | 25 (≈ 28.4 µg/mL) | 12.5 (≈ 14.2 µg/mL) | – |
| CC[C@H](C)[C@H](NC(=O)[C@@H]1CCCN1C(=O)[C@@H]1CCCN1C(=O)[C@@H](NC(=O)[C@H](CS)NC(=O)[C@@H](NC(=O)CNC(=O)[C@H](CCCCN)NC(=O)[C@H](CCCNC(=N)N)NC(=O)[C@H](CS)NC(=O)[C@H](CCCNC(=N)N)NC(=O)[C@H](Cc1ccccc1)NC(=O)[C@H](CC(N)=O)NC(=O)[C@H](C)NC(=O)CNC(=O)[C@H](Cc1ccc(O)cc1)NC(=O)[C@H](CC(C)C)NC(=O)[C@H](CCCCN)NC(=O)[C@@H]1CCCN1C(=O)[C@H](CS)NC(=O)[C@H](CC(=O)O)NC(=O)[C@H](CCCCN)NC(=O)[C@H](CC(=O)O)NC(=O)[C@H](CCCNC(=N)N)NC(=O)[C@H](CCCCN)NC(=O)[C@H](CS)NC(=O)[C@H](CO)NC(=O)[C@H](CO)NC(=O)[C@@H](NC(=O)[C@H](Cc1ccccc1)NC(=O)[C@@H](NC(=O)CNC(=O)[C@H](CC(C)C)NC(=O)[C@@H](N)Cc1ccccc1)[C@@H](C)O)[C@@H](C)CC)[C@@H](C)O)C(C)C)C(=O)O [NCR035] (H-FLGTFISSCKRDKDCPKLYGANFRCRKGTCVPPI-OH; N-terminus assumed) | – | – | 12.5 (≈ 47.8 µg/mL) | – | Activity against E. coli [5]: only effective |
